For 25 molecules, IC50 and inhibition results are on record in patent US9630958B2, “Triazine compounds” (Sphaera Pharma Pte. Ltd., priority 2012, dated 2017).

Test [1] deals with T1, PI3 Kinase alpha (p110 alpha/p85 alpha) (Homo sapiens, UniProt P42336).
T1 construct: purchased Invitrogen
Nature of the test: PI3K TR-FRET assay (Transcreener ADP2). Format: biochemical. As to conditions: for IC50: PI3K alpha, 1 μM ATP, 50 μM PIP2; for inhibition at 1 µM: 1 uM compound, read-out: PI3K % Inhib@1 uM. The essentials: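 p110α/p85α with diC8 PIP2 (50 μM) and 1 μM ATP in 50 mM HEPES pH 7.4, MgCl2, CHAPS, DTT, EGTA; 1 h at room temperature. ADP detected by Transcreener ADP2 TR-FRET (665/615 nm ratio), converted to product via ADP-ATP standard curve; IC50 from four-parameter fit of % inhibition.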

In test [2] the target is T2, Recombinant mTOR (FRAP1) (Homo sapiens, UniProt P42345).
T2 construct: purchased Invitrogen
Nature of the test: mTOR in vitro kinase assay (TR-FRET, phosphorylation of GFP-4E-BP1). Type of test: biochemical. The note with it: for inhibition at 1 µM: 1 uM compound, read-out: mTOR % Inhib@1 uM; for IC50: 8 μM ATP, 400 nM GFP-4E-BP1. The essentials: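 Recombinant human mTOR with GFP-4E-BP1 substrate at 400 nM and 8 μM ATP, 1 h at room temperature, then quenched with 10 mM EDTA plus 2 nM Tb-anti-p4E-BP1 (pThr46) for 1 h. TR-FRET 520/486 nm ratio fitted against inhibitor concentration by four-parameter sigmoidal regression.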
In general terms: TR-FRET usually uses a lanthanide donor and a delayed reading to cut background.

T2 sequence (P42345 1360-2549 limits assumed): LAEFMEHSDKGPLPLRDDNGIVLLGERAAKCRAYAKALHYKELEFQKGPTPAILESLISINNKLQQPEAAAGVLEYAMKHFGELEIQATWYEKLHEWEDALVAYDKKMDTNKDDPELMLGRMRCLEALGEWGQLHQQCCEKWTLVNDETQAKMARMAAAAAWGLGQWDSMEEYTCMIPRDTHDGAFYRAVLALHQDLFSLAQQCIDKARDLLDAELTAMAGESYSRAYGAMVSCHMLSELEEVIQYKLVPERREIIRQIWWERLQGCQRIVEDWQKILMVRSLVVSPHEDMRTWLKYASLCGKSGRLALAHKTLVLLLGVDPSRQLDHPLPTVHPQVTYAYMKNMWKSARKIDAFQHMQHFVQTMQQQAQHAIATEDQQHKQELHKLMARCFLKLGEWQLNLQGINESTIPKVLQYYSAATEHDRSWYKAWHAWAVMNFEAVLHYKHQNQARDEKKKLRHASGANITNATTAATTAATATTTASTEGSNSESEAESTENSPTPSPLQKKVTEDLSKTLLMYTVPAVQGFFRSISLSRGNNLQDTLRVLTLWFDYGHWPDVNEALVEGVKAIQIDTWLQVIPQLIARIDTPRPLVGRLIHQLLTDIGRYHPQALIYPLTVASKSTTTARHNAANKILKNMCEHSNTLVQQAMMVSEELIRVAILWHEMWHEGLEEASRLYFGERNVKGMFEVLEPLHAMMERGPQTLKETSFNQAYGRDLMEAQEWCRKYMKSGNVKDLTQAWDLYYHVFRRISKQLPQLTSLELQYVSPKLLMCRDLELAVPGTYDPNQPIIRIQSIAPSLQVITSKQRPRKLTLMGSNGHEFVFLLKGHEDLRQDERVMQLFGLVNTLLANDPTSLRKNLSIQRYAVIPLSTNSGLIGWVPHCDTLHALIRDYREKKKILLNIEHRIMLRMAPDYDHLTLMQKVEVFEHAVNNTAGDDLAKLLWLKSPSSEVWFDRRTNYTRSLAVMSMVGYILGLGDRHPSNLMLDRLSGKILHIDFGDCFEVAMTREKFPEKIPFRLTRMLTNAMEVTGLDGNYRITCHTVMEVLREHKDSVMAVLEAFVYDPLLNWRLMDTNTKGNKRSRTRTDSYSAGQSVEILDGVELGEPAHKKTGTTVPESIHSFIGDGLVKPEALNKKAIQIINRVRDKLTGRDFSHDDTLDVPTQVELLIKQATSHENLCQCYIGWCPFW
T1 sequence (P42336 whole entry): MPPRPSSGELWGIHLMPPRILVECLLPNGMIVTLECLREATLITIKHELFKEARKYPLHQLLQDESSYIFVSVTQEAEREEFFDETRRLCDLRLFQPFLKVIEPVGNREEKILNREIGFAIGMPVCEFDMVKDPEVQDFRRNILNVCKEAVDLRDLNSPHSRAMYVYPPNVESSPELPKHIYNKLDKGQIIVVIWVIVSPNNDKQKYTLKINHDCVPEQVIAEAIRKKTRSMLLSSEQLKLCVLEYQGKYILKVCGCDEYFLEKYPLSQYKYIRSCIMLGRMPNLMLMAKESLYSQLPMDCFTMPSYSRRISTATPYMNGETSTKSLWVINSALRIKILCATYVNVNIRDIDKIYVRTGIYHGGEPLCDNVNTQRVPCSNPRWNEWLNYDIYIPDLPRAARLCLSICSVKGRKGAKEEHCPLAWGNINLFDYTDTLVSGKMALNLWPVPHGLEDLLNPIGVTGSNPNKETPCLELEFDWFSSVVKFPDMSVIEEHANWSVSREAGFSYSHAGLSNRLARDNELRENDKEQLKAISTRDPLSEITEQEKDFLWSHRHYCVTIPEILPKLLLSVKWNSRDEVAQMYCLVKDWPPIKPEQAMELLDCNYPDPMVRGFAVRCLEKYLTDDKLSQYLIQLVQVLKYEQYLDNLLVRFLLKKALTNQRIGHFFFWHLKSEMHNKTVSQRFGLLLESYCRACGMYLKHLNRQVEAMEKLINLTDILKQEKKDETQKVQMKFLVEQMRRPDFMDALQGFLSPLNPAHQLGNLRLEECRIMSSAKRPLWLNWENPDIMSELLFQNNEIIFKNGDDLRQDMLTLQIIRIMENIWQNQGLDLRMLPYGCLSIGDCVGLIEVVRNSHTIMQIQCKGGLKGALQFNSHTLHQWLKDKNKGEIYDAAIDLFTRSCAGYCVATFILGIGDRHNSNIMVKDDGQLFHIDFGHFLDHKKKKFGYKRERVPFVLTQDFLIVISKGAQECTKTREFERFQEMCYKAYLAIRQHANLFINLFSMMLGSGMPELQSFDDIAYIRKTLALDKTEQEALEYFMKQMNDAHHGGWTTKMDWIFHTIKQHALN
T1 sequence (P27986 whole entry partner): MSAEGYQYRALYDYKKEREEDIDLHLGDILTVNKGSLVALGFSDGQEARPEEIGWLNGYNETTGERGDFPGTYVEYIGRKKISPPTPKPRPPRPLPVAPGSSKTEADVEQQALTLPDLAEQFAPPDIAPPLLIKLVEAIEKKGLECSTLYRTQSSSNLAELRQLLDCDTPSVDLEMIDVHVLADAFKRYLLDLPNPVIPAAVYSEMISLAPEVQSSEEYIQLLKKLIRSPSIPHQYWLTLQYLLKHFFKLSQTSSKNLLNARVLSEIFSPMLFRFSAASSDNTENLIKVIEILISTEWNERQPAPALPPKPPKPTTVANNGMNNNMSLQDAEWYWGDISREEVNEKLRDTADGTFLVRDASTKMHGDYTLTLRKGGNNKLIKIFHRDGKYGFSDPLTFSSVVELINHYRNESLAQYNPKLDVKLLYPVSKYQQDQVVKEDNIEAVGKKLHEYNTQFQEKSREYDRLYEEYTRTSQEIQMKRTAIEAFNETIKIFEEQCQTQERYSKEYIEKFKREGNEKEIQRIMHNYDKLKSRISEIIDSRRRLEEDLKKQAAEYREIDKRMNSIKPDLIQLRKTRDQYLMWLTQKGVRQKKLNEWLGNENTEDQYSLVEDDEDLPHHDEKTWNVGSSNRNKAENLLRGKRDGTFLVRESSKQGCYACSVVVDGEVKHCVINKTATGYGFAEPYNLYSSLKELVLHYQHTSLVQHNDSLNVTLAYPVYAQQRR

As to `C[C@H]1COCCN1c1nc(Oc2ccc(C(=O)N(C)C)cc2F)nc(-c2ccc3[nH]ncc3c2)n1` [Compound 10051, (S)-4-((4-(1H-indazol-5-yl)-6-(3-methylmorpholino)-1,3,5-triazin-2-yl)oxy)-3-fluoro-N,N-dimethylbenzamide], in test [1], the IC50 (commonly the concentration that inhibits the measured activity by half) is more than 1 µM. For the same molecule, in test [2], the inhibition at 1 µM was more than 50% and the half-inhibitory concentration (IC50) was less than 1 µM.
Regarding `C[C@H]1COCCN1c1nc(Oc2ccc(C(=O)N(C)C)cc2F)nc(-c2ccc(N)nc2)n1` [Compound 10058, (S)-4-((4-(6-Aminopyridin-3-yl)-6-(3-methylmorpholino)-1,3,5-triazin-2-yl)oxy)-3-fluoro-N,N-dimethylbenzamide], the IC50 in test [1] and in test [2] was less than 1 µM each time.
Consider `C[C@H]1COCCN1c1nc(Oc2ccc(C(=O)N(C)C)cc2F)nc(-c2cnc3[nH]ccc3c2)n1` [Compound 10103, (S)-3-Fluoro-N,N-dimethyl-4-((4-(3-methylmorpholino)-6-(1H-pyrrolo-[2,3-b]pyridin-5-yl)-1,3,5-triazin-2-yl)oxy)benzamide], for which the IC50 in test [1] and in test [2] was less than 1 µM in each case.
Regarding `C[C@H]1COCCN1c1nc(Oc2ccc(C(=O)N(C)C)cc2)nc(-c2cnc(N)cc2C(F)(F)F)n1` [Compound 10066, (S)-4-((4-(6-Amino-4-(trifluoromethyl)pyridine-3-yl)-6-(3-methylmorpholino)-1,3,5-triazin-2-yl)oxy)-N,N-dimethylbenzamide], the IC50 in test [1] and in test [2] was less than 1 µM throughout.
For `CN(C)C(=O)c1ccc(Oc2nc(-c3cnc(N)s3)nc(N3CCOCC3)n2)c(F)c1` [Compound 10022, 4-(4-(2-aminothiazol-5-yl)-6-morpholino-1,3,5-triazin-2-yloxy)-3-fluoro-N,N-dimethylbenzamide], the IC50 in test [1] and in test [2] was less than 1 µM each time. Further, the inhibition at 1 µM in test [2] was more than 50%.
With `CC[C@@H]1COCCN1c1nc(Oc2ccc(C(=O)N(C)C)cc2)nc(-c2cnc(N)s2)n1` [Compound 10082, (R)-4-((4-(2-Aminothiazol-5-yl)-6-(3-ethylmorpholino)-1,3,5-triazin-2-yl)oxy)-N,N-dimethylbenzamide], the inhibition at 1 µM in test [1] and in test [2] was less than 50% throughout.
Consider `C[C@H]1COCCN1c1nc(Oc2ccc(C(=O)N(C)C)cc2)nc(-c2cnc(NC(=O)NC3CC3)s2)n1` [Compound 10093], for which, in test [1], the inhibition at 1 µM is more than 50% and the IC50 is less than 1 µM. For the same molecule, the IC50 in test [2] was less than 1 µM.
`CN(C)C(=O)c1ccc(Oc2nc(-c3cnc(N)cc3C(F)(F)F)nc(N3CCOCC3)n2)cc1` [Compound 10015, 4-(4-(6-amino-4-(trifluoromethyl)pyridin-3-yl)-6-morpholino-1,3,5-triazin-2-yloxy)-N,N-dimethylbenzamide] showed an IC50 in test [1] of less than 1 µM. In test [2], the inhibition at 1 µM is more than 50% and the IC50 was less than 1 µM.
The molecule `CC(C(=O)N(C)C)c1ccc(Oc2nc(-c3cnc(N)s3)nc(N3CCOCC3)n2)cc1` (stereo not drawn) [Compound 10115, 2-(4-(4-(2-aminothiazol-5-yl)-6-morpholino-1,3,5-triazin-2-yloxy)phenyl)-N,N-dimethylpropanamide] registered an IC50 in test [1] of less than 1 µM. In test [2], the inhibition at 1 µM was more than 50%.
As to `C[C@H]1CN(c2nc(Oc3ccc(C(=O)N(C)C)cc3F)nc(-c3ccc(N)nc3)n2)[C@@H](C)CO1` [Compound 10097, 4-((4-(6-Aminopyridin-3-yl)-6-((2S,5S)-2,5-dimethylmorpholino)-1,3,5-triazin-2-yl)oxy)-3-fluoro-N,N-dimethylbenzamide], in test [1], the inhibition at 1 µM is more than 50% and the IC50 is less than 1 µM. For the same molecule, the IC50 in test [2] was less than 1 µM.
As for `C[C@H]1COCCN1c1nc(O[C@H]2CC[C@H](C(=O)N(C)C)CC2)nc(-c2ccc(CO)cc2)n1` [Compound 10203, (1S,4r)-4-((4-(4-(hydroxymethyl)phenyl)-6-((S)-3-methylmorpholino)-1,3,5-triazin-2-yl)oxy)-N,N-dimethylcyclohexane-1-carboxamide], in test [1], the inhibition at 1 µM is less than 50%. In addition, in test [2], the IC50 is more than 3 µM.
Turning to `C[C@H]1COCCN1c1nc(Oc2ccc(C(=O)N(C)C)cc2F)nc(-c2cnc(N)nc2)n1` [Compound 10204, (S)-4-((4-(2-aminopyrimidin-5-yl)-6-(3-methylmorpholino)-1,3,5-triazin-2-yl)oxy)-3-fluoro-N,N-dimethylbenzamide], the concentration for half-maximal inhibition (IC50) in test [1] and in test [2] was less than 1 µM throughout.
With `Cc1cc(Oc2nc(-c3ccc(N)nc3)nc(N3CCOCC3)n2)ccc1C(=O)N(C)C` [Compound 10181, 4-((4-(6-aminopyridin-3-yl)-6-morpholino-1,3,5-triazin-2-yl)oxy)-N,N,2-trimethylbenzamide], the IC50 in test [1] and in test [2] was less than 1 µM in each case. Besides, the inhibition at 1 µM in test [2] is more than 50%.
For `CN(C)C(=O)c1cccc(Nc2nc(-c3cnc(N)s3)nc(N3CCOCC3)n2)c1` [Compound 10200, 3-((4-(2-aminothiazol-5-yl)-6-morpholino-1,3,5-triazin-2-yl)amino)-N,N-dimethylbenzamide], the IC50 in test [1] was less than 1 µM. Moreover, in test [2], the inhibition at 1 µM was less than 50%.
With `C[C@@H]1CN(c2nc(Oc3ccc(C(=O)N(C)C)cc3F)nc(-c3cnc(N)s3)n2)[C@@H](C)CO1` [Compound 10057, 4-((4-(2-Aminothiazol-5-yl)-6-((2R,5S)-2,5-dimethylmorpholino)-1,3,5-triazin-2-yl)oxy)-3-fluoro-N,N-dimethylbenzamide], the inhibition at 1 µM in test [1] was less than 50%. Besides, the IC50 in test [2] was less than 1 µM.
In the case of `Nc1ccc(-c2nc(Oc3ccc4c(c3)CCC(=O)N4)nc(N3CCOCC3)n2)cn1` [Compound 10182, 6-((4-(6-aminopyridin-3-yl)-6-morpholino-1,3,5-triazin-2-yl)oxy)-3,4-dihydroquinolin-2(1H)-one], in test [1], the half-inhibitory concentration (IC50) is less than 1 µM. Also, in test [2], the inhibition at 1 µM is more than 50% and the IC50 is more than 1 µM.
In the case of `CN(C)C(=O)Cc1ccc(Oc2nc(-c3ccc(N)nc3)nc(N3CCOCC3)n2)cc1` [Compound 10180, 2-(4-((4-(6-aminopyridin-3-yl)-6-morpholino-1,3,5-triazin-2-yl)oxy)phenyl)-N,N-dimethylacetamide], the IC50 in test [1] and in test [2] was less than 1 µM each time. Moreover, the inhibition at 1 µM in test [2] was more than 50%.
For the molecule `C[C@@H]1CN(c2nc(Oc3ccc(C(=O)N(C)C)cc3F)nc(-c3cnc(N)s3)n2)C[C@H](C)O1` [Compound 10069], the IC50 in test [1] is more than 1 µM; in test [2], less than 1 µM.
In the case of `CN(C)C(=O)c1ccc(Nc2nc(-c3cnc(N)s3)nc(N3CCOCC3)n2)cc1` [Compound 10196, 4-((4-(2-aminothiazol-5-yl)-6-morpholino-1,3,5-triazin-2-yl)amino)-N,N-dimethylbenzamide], in test [1], the IC50 was less than 1 µM. In test [2], the inhibition at 1 µM was less than 50%.
`CN(C)C(=O)C1CCC(Oc2nc(-c3ccc4[nH]ccc4c3)nc(N3CCO[C@@H]4CCC[C@H]43)n2)CC1` (stereo partly drawn) [Compound 10150, (1S,4s)-4-(4-((4aR,7aR)-hexahydrocyclopenta[b][1,4]oxazin-4(4aH)-yl)-6-(1H-indol-5-yl)-1,3,5-triazin-2-yloxy)-N,N-dimethylcyclohexanecarboxamide]: in test [1], the inhibition at 1 µM was less than 50%. Also, the IC50 in test [2] is more than 10 µM.
In the case of `C[C@H]1COCCN1c1nc(OC2CCN(C(=O)N(C)C)C2)nc(-c2cnc(N)s2)n1` (stereo partly drawn) [Compound 10138, 3-(4-(2-aminothiazol-5-yl)-6-((S)-3-methylmorpholino)-1,3,5-triazin-2-yloxy)-N,N-dimethylpyrrolidine-1-carboxamide], in test [1], the inhibition at 1 µM is more than 50% and the IC50 was less than 1 µM. Besides, in test [2], the inhibition at 1 µM was less than 50% and the IC50 is more than 1 µM.
Take `C[C@H]1COCCN1c1nc(OC2CCC(C(=O)N(C)C)CC2)nc(-c2ccc3[nH]ccc3c2)n1` (stereo partly drawn) [Compound 10141, (1R,4s)-4-(4-(1H-indol-5-yl)-6-((S)-3-methylmorpholino)-1,3,5-triazin-2-yloxy)-N,N-dimethylcyclohexanecarboxamide]: in test [1], the inhibition at 1 µM is less than 50% and the IC50 is more than 10 µM. Also, the IC50 in test [2] is less than 1 µM.
`CN(C)C(=O)c1ccc(Oc2nc(-c3cnc(N)s3)nc(N3[C@@H]4CC[C@H]3COC4)n2)cc1` [Compound 10011, 4-(4-(2-aminothiazol-5-yl)-6-((1R,5S)-3-oxa-8-azabicyclo[3.2.1]octan-8-yl)-1,3,5-triazin-2-yloxy)-N,N-dimethylbenzamide] had a concentration for half-maximal inhibition (IC50) in test [1] of more than 1 µM. In test [2], the inhibition at 1 µM is more than 50% and the half-inhibitory concentration (IC50) was less than 1 µM.
As to `CC1COCCN1c1nc(Oc2ccc(C(=O)N(C)C)cc2)nc(-c2cnc(N)s2)n1` (stereo not drawn) [Compound 10006, 4-(4-(2-aminothiazol-5-yl)-6-(3-methylmorpholino)-1,3,5-triazin-2-yloxy)-N,N-dimethylbenzamide], the inhibition at 1 µM is more than 50% in test [1] and less than 50% in test [2]. For the same molecule, the IC50 in test [1] is more than 1 µM.
For `C[C@H]1COCCN1c1nc(OC2CCC(C(=O)N(C)C)CC2)nc(-c2cccc(CO)c2)n1` (stereo partly drawn) [Compound 10147, (1R,4s)-4-(4-(3-(hydroxymethyl)phenyl)-6-((S)-3-methylmorpholino)-1,3,5-triazin-2-yloxy)-N,N-dimethylcyclohexanecarboxamide], the inhibition at 1 µM in test [1] was more than 50%. In addition, the IC50 in test [2] is more than 1 µM.
